Test results reported in the NIST ThermoML archive (doi:10.1021/je800325d).

What was measured:
[1] = refractive index (Na D-line) (dimensionless); xn = mol fraction of the nth substance listed; details: 101 kPa, Liquid
[2] = xn = mol fraction of the nth substance listed; details: 101 kPa, Liquid

CC(=O)OCCC(C)C [3-methylbutyl ethanoate] + Cc1ccccc1C
Details | mass density, [2] [kg/m3] | refractive index, [1] | viscosity, [2] [mPa·s]
303.15 K, x1 = 0.0856 | 869.7 | 1.4903 | 0.705
303.15 K, x1 = 0.1739 | 869.5 | 1.4806 | 0.707
303.15 K, x1 = 0.2554 | 868.2 | 1.4721 | 0.709
303.15 K, x1 = 0.3538 | 867.8 | 1.462 | 0.712
303.15 K, x1 = 0.445 | 867.4 | 1.453 | 0.714
303.15 K, x1 = 0.5481 | 866 | 1.4436 | 0.718
303.15 K, x1 = 0.6564 | 865 | 1.4319 | 0.722
303.15 K, x1 = 0.7531 | 864.1 | 1.4217 | 0.726
303.15 K, x1 = 0.8542 | 863.7 | 1.4113 | 0.731
303.15 K, x1 = 0.9538 | 863.2 | 1.4018 | 0.738
313.15 K, x1 = 0.0856 | 861.4 | 1.488 | 0.622
313.15 K, x1 = 0.1739 | 860.8 | 1.4779 | 0.623
313.15 K, x1 = 0.2554 | 859.8 | 1.4695 | 0.623
313.15 K, x1 = 0.3538 | 859.1 | 1.458 | 0.624
313.15 K, x1 = 0.445 | 858.4 | 1.4486 | 0.625
313.15 K, x1 = 0.5481 | 856.7 | 1.4375 | 0.627
313.15 K, x1 = 0.6564 | 855.8 | 1.4258 | 0.631
313.15 K, x1 = 0.7531 | 855.1 | 1.4157 | 0.635
313.15 K, x1 = 0.8542 | 854.7 | 1.4062 | 0.64
313.15 K, x1 = 0.9538 | 853.9 | 1.3961 | 0.646

COC(=O)c1ccccc1 [methyl benzoate] + CCc1ccccc1
refractive index, [1], Standard Abbe refractometry
Details | x1 = 0.1033 | x1 = 0.1927 | x1 = 0.2952 | x1 = 0.3974 | x1 = 0.4947 | x1 = 0.5866 | x1 = 0.6963 | x1 = 0.7953 | x1 = 0.9016 | x1 = 0.951
303.15 K | 1.4911 | 1.4933 | 1.4945 | 1.4958 | 1.4968 | 1.4978 | 1.5022 | 1.5054 | 1.509 | 1.5092
313.15 K | 1.4888 | 1.49 | 1.4918 | 1.4928 | 1.4937 | 1.4955 | 1.4985 | 1.5014 | 1.5044 | 1.5064

[2]
Details | mass density, 303.15 K [kg/m3] | mass density, 313.15 K [kg/m3] | viscosity, 303.15 K [mPa·s] | viscosity, 313.15 K [mPa·s]
x1 = 0.1033 | 877.9 | 870.2 | 0.656 | 0.583
x1 = 0.1927 | 898.9 | 890.3 | 0.701 | 0.641
x1 = 0.2952 | 921.6 | 912.7 | 0.784 | 0.687
x1 = 0.3974 | 943.6 | 935 | 0.857 | 0.75
x1 = 0.4947 | 963.3 | 954.1 | 0.947 | 0.824
x1 = 0.5866 | 982.3 | 973.7 | 1.043 | 0.925
x1 = 0.6963 | 1000.3 | 992 | 1.17 | 1.048
x1 = 0.7953 | 1023.3 | 1010.3 | 1.308 | 1.165
x1 = 0.9016 | 1053.3 | 1043.3 | 1.464 | 1.287
x1 = 0.951 | 1056.8 | 1047.4 | 1.566 | 1.346

CC(=O)OCCC(C)C [3-methylbutyl ethanoate] + CCc1ccccc1
refractive index, [1], Standard Abbe refractometry
Details | x1 = 0.0851 | x1 = 0.1684 | x1 = 0.2613 | x1 = 0.3719 | x1 = 0.4584 | x1 = 0.538 | x1 = 0.6532 | x1 = 0.7513 | x1 = 0.8475 | x1 = 0.9401
303.15 K | 1.4802 | 1.4701 | 1.4593 | 1.4471 | 1.4376 | 1.4291 | 1.4177 | 1.4112 | 1.4041 | 1.3983
313.15 K | 1.4781 | 1.4676 | 1.4565 | 1.4425 | 1.4342 | 1.4276 | 1.4168 | 1.4099 | 1.4035 | 1.3965

[2]
Details | mass density, 303.15 K [kg/m3] | mass density, 313.15 K [kg/m3] | viscosity, 303.15 K [mPa·s] | viscosity, 313.15 K [mPa·s]
x1 = 0.0851 | 856.9 | 848.8 | 0.597 | 0.533
x1 = 0.1684 | 858 | 849.1 | 0.605 | 0.541
x1 = 0.2613 | 858.4 | 849.7 | 0.615 | 0.549
x1 = 0.3719 | 859 | 850.3 | 0.629 | 0.559
x1 = 0.4584 | 859.6 | 850.9 | 0.639 | 0.567
x1 = 0.538 | 860.1 | 851.3 | 0.649 | 0.575
x1 = 0.6532 | 861.1 | 851.6 | 0.666 | 0.588
x1 = 0.7513 | 861.6 | 851.8 | 0.681 | 0.6
x1 = 0.8475 | 862 | 852.1 | 0.703 | 0.619
x1 = 0.9401 | 862.3 | 852.3 | 0.726 | 0.638
